Assay results as given in EP1171107B1, “USE OF A PHARMACEUTICAL COMPOSITION IN THE MANUFACTURE OF A MEDICAMENT FOR THE TREATMENT OF PATHOLOGICAL CONDITIONS OF THE EYE CAUSED BY BACTERIA, VIRUSES, FUNGI, YEASTS AND PROTOZOA” (Dr. GERHARD MANN chem.-pharm. Fabrik GmbH, priority 1999, dated 2000).

How the values were obtained:
Type in all cases: cell-based
[1] = system: E.coli; assay: Qualitative examination: enrichment of the inoculated test preparation in broth
Procedure, shortened: (§1)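 5 ml substance + ca. 10^5 CFU/ml; contact 2, 6, 8, 24, 32, 48, 72 h; spin 10 min 3000 rpm, resuspend in NaCl-peptone buffer ×2; 2 ml → 20 ml Caso broth (H. influenzae: Fildes), 33±2°C, ≤4 d; no growth = inoculum eliminated.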

[2] = system: Sc. pneumoniae; assay: as above
Procedure, shortened: as §1

[3] = system: S.epidermidis; assay: as above
Procedure, shortened: as §1

[4] = system: S.aureus; assay: as above
Procedure, shortened: as §1

[5] = system: S.epidermidis; assay: Quantitative germ count (re-isolation, surface method) after inoculating the test preparation; conditions: Ausgangskeimzahl 2,1 x 10^5 KBE/ml
Procedure, shortened: (§2)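 Test preparations were contaminated with ca. 10^5 CFU/ml of each strain, then sampled at 2, 6, 8, 24, 32, 48 and 72 h. Cells were centrifuged 10 min at 3000 rpm, washed in NaCl-peptone buffer, resuspended and spiral-plated on Caso agar at 33±2°C for max. 4 days. Detection limit was 100 CFU/ml.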

[6] = system: P.aeruginosa; assay: as above; conditions: Ausgangskeimzahl 2,7 x 10^5 KBE/ml
Procedure, shortened: as §2

[7] = system: H.influenzae; assay: Qualitative examination: enrichment of the inoculated test preparation in broth
Procedure, shortened: as §1

[8] = system: P.aeruginosa; assay: as above
Procedure, shortened: as §1

[9] = system: H.influenzae; assay: Quantitative germ count (re-isolation, surface method) after inoculating the test preparation; conditions: Ausgangskeimzahl 2,8 x 10^5 KBE/ml
Procedure, shortened: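 Surviving germs were counted by the surface method: an aliquot was spiral-plated on Kochblut-Agar and incubated at 33±2°C for max. 4 Tage, giving re-isolated counts in KBE/ml with a detection limit of 100 KBE/ml. Initial germ counts were also set by spiral-plater surface plating. The H. influenzae strain was pretested biochemically for identity and purity.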

[10] = system: E.coli; assay: as above; conditions: Ausgangskeimzahl 2,7 x 10^5 KBE/ml
[11] = system: Sc. pneumoniae; assay: as above; conditions: Ausgangskeimzahl 3,7 x 10^5 KBE/ml
Procedure, shortened: as §2

Substance: Benzalkoniumchlorid [Benzalkoniumchlorid 0,0025 Gew.-%]
- Ergebnis der Reisolierung qualitiativ (+/-) nach Anreicherung ([1]; 2 h after inoculation): -
- Ergebnis der Reisolierung qualitiativ (+/-) nach Anreicherung ([1]; 4 h after inoculation): -
- Ergebnis der Reisolierung qualitiativ (+/-) nach Anreicherung ([1]; 6 h after inoculation): -
- Ergebnis der Reisolierung qualitiativ (+/-) nach Anreicherung ([1]; 8 h after inoculation): -
- Ergebnis der Reisolierung qualitiativ (+/-) nach Anreicherung ([1]; 24 h after inoculation): -
- Ergebnis der Reisolierung qualitiativ (+/-) nach Anreicherung ([1]; 32 h after inoculation): -
- Ergebnis der Reisolierung qualitiativ (+/-) nach Anreicherung ([1]; 48 h after inoculation): -
- Ergebnis der Reisolierung qualitiativ (+/-) nach Anreicherung ([1]; 72 h after inoculation): -
- Ergebnis der Reisolierung qualitiativ (+/-) nach Anreicherung ([2]; 2 h after inoculation): -
- Ergebnis der Reisolierung qualitiativ (+/-) nach Anreicherung ([2]; 4 h after inoculation): -
- Ergebnis der Reisolierung qualitiativ (+/-) nach Anreicherung ([2]; 6 h after inoculation): -
- Ergebnis der Reisolierung qualitiativ (+/-) nach Anreicherung ([2]; 8 h after inoculation): -
- Ergebnis der Reisolierung qualitiativ (+/-) nach Anreicherung ([2]; 24 h after inoculation): -
- Ergebnis der Reisolierung qualitiativ (+/-) nach Anreicherung ([2]; 32 h after inoculation): -
- Ergebnis der Reisolierung qualitiativ (+/-) nach Anreicherung ([2]; 48 h after inoculation): -
- Ergebnis der Reisolierung qualitiativ (+/-) nach Anreicherung ([2]; 72 h after inoculation): -
- Ergebnis der Reisolierung qualitiativ (+/-) nach Anreicherung ([3]; 2 h after inoculation): - -
- Ergebnis der Reisolierung qualitiativ (+/-) nach Anreicherung ([3]; 4 h after inoculation): -
- Ergebnis der Reisolierung qualitiativ (+/-) nach Anreicherung ([3]; 6 h after inoculation): -
- Ergebnis der Reisolierung qualitiativ (+/-) nach Anreicherung ([3]; 8 h after inoculation): -
- Ergebnis der Reisolierung qualitiativ (+/-) nach Anreicherung ([3]; 24 h after inoculation): -
- Ergebnis der Reisolierung qualitiativ (+/-) nach Anreicherung ([3]; 32 h after inoculation): -
- Ergebnis der Reisolierung qualitiativ (+/-) nach Anreicherung ([3]; 48 h after inoculation): -
- Ergebnis der Reisolierung qualitiativ (+/-) nach Anreicherung ([3]; 72 h after inoculation): -
- Ergebnis der Reisolierung qualitiativ (+/-) nach Anreicherung ([4]; 2 h after inoculation): -
- Ergebnis der Reisolierung qualitiativ (+/-) nach Anreicherung ([4]; 4 h after inoculation): -
- Ergebnis der Reisolierung qualitiativ (+/-) nach Anreicherung ([4]; 6 h after inoculation): -
- Ergebnis der Reisolierung qualitiativ (+/-) nach Anreicherung ([4]; 8 h after inoculation): -
- Ergebnis der Reisolierung qualitiativ (+/-) nach Anreicherung ([4]; 24 h after inoculation): -
- Ergebnis der Reisolierung qualitiativ (+/-) nach Anreicherung ([4]; 32 h after inoculation): -
- Ergebnis der Reisolierung qualitiativ (+/-) nach Anreicherung ([4]; 48 h after inoculation): -
- Ergebnis der Reisolierung qualitiativ (+/-) nach Anreicherung ([4]; 72 h after inoculation): -
- Ergebnis der Reisolierung (in KBE/ml) ([5]; 2 h after inoculation): <100 KBE/ml
- Ergebnis der Reisolierung (in KBE/ml) ([5]; 4 h after inoculation): <100 KBE/ml
- Ergebnis der Reisolierung (in KBE/ml) ([5]; 6 h after inoculation): <100 KBE/ml
- Ergebnis der Reisolierung (in KBE/ml) ([5]; 8 h after inoculation): <100 KBE/ml
- Ergebnis der Reisolierung (in KBE/ml) ([5]; 24 h after inoculation): <100 KBE/ml
- Ergebnis der Reisolierung (in KBE/ml) ([5]; 32 h after inoculation): <100 KBE/ml
- Ergebnis der Reisolierung (in KBE/ml) ([5]; 48 h after inoculation): <100 KBE/ml
- Ergebnis der Reisolierung (in KBE/ml) ([5]; 72 h after inoculation): <100 KBE/ml
- Ergebnis der Reisolierung (in KBE/ml) ([6]; 2 h after inoculation): <100 KBE/ml
- Ergebnis der Reisolierung (in KBE/ml) ([6]; 4 h after inoculation): <100 KBE/ml
- Ergebnis der Reisolierung (in KBE/ml) ([6]; 6 h after inoculation): <100 KBE/ml
- Ergebnis der Reisolierung (in KBE/ml) ([6]; 8 h after inoculation): <100 KBE/ml
- Ergebnis der Reisolierung (in KBE/ml) ([6]; 24 h after inoculation): <100 KBE/ml
- Ergebnis der Reisolierung (in KBE/ml) ([6]; 32 h after inoculation): <100 KBE/ml
- Ergebnis der Reisolierung (in KBE/ml) ([6]; 48 h after inoculation): <100 KBE/ml
- Ergebnis der Reisolierung (in KBE/ml) ([6]; 72 h after inoculation): <100 KBE/ml
- Ergebnis der Reisolierung qualitiativ (+/-) nach Anreicherung ([7]; 2 h after inoculation): -
- Ergebnis der Reisolierung qualitiativ (+/-) nach Anreicherung ([7]; 4 h after inoculation): -
- Ergebnis der Reisolierung qualitiativ (+/-) nach Anreicherung ([7]; 6 h after inoculation): -
- Ergebnis der Reisolierung qualitiativ (+/-) nach Anreicherung ([7]; 8 h after inoculation): -
- Ergebnis der Reisolierung qualitiativ (+/-) nach Anreicherung ([7]; 24 h after inoculation): -
- Ergebnis der Reisolierung qualitiativ (+/-) nach Anreicherung ([7]; 32 h after inoculation): -
- Ergebnis der Reisolierung qualitiativ (+/-) nach Anreicherung ([7]; 48 h after inoculation): -
- Ergebnis der Reisolierung qualitiativ (+/-) nach Anreicherung ([7]; 72 h after inoculation): -
- Ergebnis der Reisolierung qualitiativ (+/-) nach Anreicherung ([8]; 2 h after inoculation): - -
- Ergebnis der Reisolierung qualitiativ (+/-) nach Anreicherung ([8]; 4 h after inoculation): -
- Ergebnis der Reisolierung qualitiativ (+/-) nach Anreicherung ([8]; 6 h after inoculation): -
- Ergebnis der Reisolierung qualitiativ (+/-) nach Anreicherung ([8]; 8 h after inoculation): -
- Ergebnis der Reisolierung qualitiativ (+/-) nach Anreicherung ([8]; 24 h after inoculation): -
- Ergebnis der Reisolierung qualitiativ (+/-) nach Anreicherung ([8]; 32 h after inoculation): -
- Ergebnis der Reisolierung qualitiativ (+/-) nach Anreicherung ([8]; 48 h after inoculation): -
- Ergebnis der Reisolierung qualitiativ (+/-) nach Anreicherung ([8]; 72 h after inoculation): -
- Ergebnis der Reisolierung (in KBE/ml) ([9]; 2 h after inoculation): <100 KBE/ml
- Ergebnis der Reisolierung (in KBE/ml) ([9]; 4 h after inoculation): <100 KBE/ml
- Ergebnis der Reisolierung (in KBE/ml) ([9]; 6 h after inoculation): <100 KBE/ml
- Ergebnis der Reisolierung (in KBE/ml) ([9]; 8 h after inoculation): <100 KBE/ml
- Ergebnis der Reisolierung (in KBE/ml) ([9]; 24 h after inoculation): <100 KBE/ml
- Ergebnis der Reisolierung (in KBE/ml) ([9]; 32 h after inoculation): <100 KBE/ml
- Ergebnis der Reisolierung (in KBE/ml) ([9]; 48 h after inoculation): <100 KBE/ml
- Ergebnis der Reisolierung (in KBE/ml) ([9]; 72 h after inoculation): <100 KBE/ml
- Ergebnis der Reisolierung (in KBE/ml) ([10]; 2 h after inoculation): <100 KBE/ml
- Ergebnis der Reisolierung (in KBE/ml) ([10]; 4 h after inoculation): <100 KBE/ml
- Ergebnis der Reisolierung (in KBE/ml) ([10]; 6 h after inoculation): <100 KBE/ml
- Ergebnis der Reisolierung (in KBE/ml) ([10]; 8 h after inoculation): <100 KBE/ml
- Ergebnis der Reisolierung (in KBE/ml) ([10]; 24 h after inoculation): <100 KBE/ml
- Ergebnis der Reisolierung (in KBE/ml) ([10]; 32 h after inoculation): <100 KBE/ml
- Ergebnis der Reisolierung (in KBE/ml) ([10]; 48 h after inoculation): <100 KBE/ml
- Ergebnis der Reisolierung (in KBE/ml) ([10]; 72 h after inoculation): <100 KBE/ml
- Ergebnis der Reisolierung (in KBE/ml) ([11]; 2 h after inoculation): <100 KBE/ml
- Ergebnis der Reisolierung (in KBE/ml) ([11]; 4 h after inoculation): <100 KBE/ml
- Ergebnis der Reisolierung (in KBE/ml) ([11]; 6 h after inoculation): <100 KBE/ml
- Ergebnis der Reisolierung (in KBE/ml) ([11]; 8 h after inoculation): <100 KBE/ml
- Ergebnis der Reisolierung (in KBE/ml) ([11]; 24 h after inoculation): <100 KBE/ml
- Ergebnis der Reisolierung (in KBE/ml) ([11]; 32 h after inoculation): <100 KBE/ml
- Ergebnis der Reisolierung (in KBE/ml) ([11]; 48 h after inoculation): <100 KBE/ml
- Ergebnis der Reisolierung (in KBE/ml) ([11]; 72 h after inoculation): <100 KBE/ml
